In US10669261B2, “Heteroarylhydroxypyrimidinones as agonists of the APJ receptor” (BRISTOL-MYERS SQUIBB COMPANY, priority 2015, dated 2020):

Each molecule was assayed against T1, human APJ receptor (Homo sapiens, UniProt P35414) (assay: Intracellular cAMP accumulation assay (APJ hcAMP, HTRF)). Conditions: HEK293 cells stably expressing human APJ receptor; inhibition of forskolin-mediated cAMP production; stated at end of example; read-out: Human APJ cAMP Potency Range.
T1 construct: expressed in transfected cells
T1 sequence (P35414 1-380): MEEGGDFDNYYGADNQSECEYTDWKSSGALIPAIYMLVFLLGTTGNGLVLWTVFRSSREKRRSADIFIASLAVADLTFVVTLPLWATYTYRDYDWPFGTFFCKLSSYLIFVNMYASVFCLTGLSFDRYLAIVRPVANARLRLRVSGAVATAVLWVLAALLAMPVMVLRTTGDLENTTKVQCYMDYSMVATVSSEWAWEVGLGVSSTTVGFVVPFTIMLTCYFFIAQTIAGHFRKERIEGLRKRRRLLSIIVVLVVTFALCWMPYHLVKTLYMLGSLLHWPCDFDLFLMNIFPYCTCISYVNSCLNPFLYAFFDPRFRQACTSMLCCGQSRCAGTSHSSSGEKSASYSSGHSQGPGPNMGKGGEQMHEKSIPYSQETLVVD
Assay type: cell-based
Outline: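 HEK293 cells stably expressing the receptor (5,000/well) treated with compound plus […] and 2 μM forskolin for 30 min at room temperature; cAMP by HTRF against a cAMP standard curve. EC50 from variable-slope sigmoidal fit; Ymax as % of (Pyr1)apelin-13 inhibition.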
`CCCCc1nc(O)c(-c2nnc(Cc3noc4ccccc34)o2)c(=O)n1[C@@H](CC)c1ccccc1` [Example 74, (S)-5-(5-(Benzo[d]isoxazol-3-ylmethyl)-1,3,4-oxadiazol-2-yl)-2-butyl-6-hydroxy-3-(1-phenylpropyl)pyrimidin-4(3H)-one] showed an EC50 of 0.01 to 10 nM.

Same assay, conditions: Table 1; HEK293 cells stably expressing human APJ receptor; read-out: hAPJ cAMP EC50 Potency range
Molecule `COc1cccc(OC)c1-n1c(C2CCCC2)nc(=O)c(-c2nnc(Cc3ncc(Cl)cc3F)o2)c1O` [Example 69, 5-{5-[(5-chloro-3-fluoropyridin-2-yl)methyl]-1,3,4-oxadiazol-2-yl}-2 cyclopentyl-1-(2,6-dimethoxyphenyl)-6-hydroxy-1,4-dihydropyrimidin-4-one] has an EC50 of 0.01 to 10 nM.
For `COc1cccc(OC)c1-n1c(C2CCC2)nc(=O)c(-c2nnc(Cc3ccc(Cl)cn3)o2)c1O` [Example 70, 5-{5-[(5-chloropyridin-2-yl)methyl]-1,3,4-oxadiazol-2-yl}-2-cyclobutyl-1-(2,6-dimethoxyphenyl)-6-hydroxy-1,4-dihydropyrimidin-4-one], the EC50 was 0.01 to 10 nM.
`COc1cccc(OC)c1-n1c(C2CCC2)nc(=O)c(-c2nnc(Cc3ncc(Cl)cc3F)o2)c1O` [Example 71, 5-{5-[(5-chloro-3-fluoropyridin-2-yl)methyl]-1,3,4-oxadiazol-2-yl}-2-cyclobutyl-1-(2,6-dimethoxyphenyl)-6-hydroxy-1,4-dihydropyrimidin-4-one] gave an EC50 of 0.01 to 10 nM.
In the case of `COc1cccc(OC)c1-n1c(C2CCC2)nc(=O)c(-c2nnc(CN3CCCC3=O)o2)c1O` [Example 72, 2-cyclobutyl-1-(2,6-dimethoxyphenyl)-6-hydroxy-5-{5-[(2-oxopyrrolidin-1-yl)methyl]-1,3,4-oxadiazol-2-yl}-1,4-dihydropyrimidin-4-one], the EC50 is reported as 0.01 to 10 nM.
`COc1cccc(OC)c1-n1c(C2CCC2)nc(=O)c(-c2nnc(Cc3csc(C)n3)o2)c1O` [Example 73, 2-cyclobutyl-1-(2,6-dimethoxyphenyl)-6-hydroxy-5-{5-[(2-methyl-1,3-thiazol-4-yl)methyl]-1,3,4-oxadiazol-2-yl}-1,4-dihydropyrimidin-4-one] gave an EC50 of 0.01 to 10 nM.

Same assay, conditions: Table 2; HEK293 cells stably expressing human APJ receptor; read-out: hAPJ cAMP EC50 Potency range
Work on `CCCCc1nc(O)c(-c2nnc(Cc3noc4ccccc34)o2)c(=O)n1[C@@H](C)c1ccccc1` [Example 75, 5-{5-[(1,2-benzoxazol-3-yl)methyl]-1,3,4-oxadiazol-2-yl}-2-butyl-6-hydroxy-3-[(1S)-1-phenylethyl]-3,4-dihydropyrimidin-4-one] yielded an EC50 of 10 to 100 nM.
With `CCCCc1nc(O)c(-c2nnc(Cc3csc(C)n3)o2)c(=O)n1[C@@H](C)c1ccccc1` [Example 76, 2-butyl-6-hydroxy-5-{5-[(2-methyl-1,3-thiazol-4-yl)methyl]-1,3,4-oxadiazol-2-yl}-3-[(1S)-1-phenylethyl]-3,4-dihydropyrimidin-4-one] the EC50 was 0.01 to 10 nM.
Work on `CCCCc1nc(O)c(-c2nnc(Cc3ccc(Cl)cc3)o2)c(=O)n1[C@@H](C)C1CC1` [Example 77, 2-butyl-5-{5-[(4-chlorophenyl)methyl]-1,3,4-oxadiazol-2-yl}-3-[(1S)-1-cyclopropylethyl]-6-hydroxy-3,4-dihydropyrimidin-4-one] yielded an EC50 of 100 to 300 nM.
Work on `CCCCc1nc(O)c(-c2nnc(Cc3noc4ccccc34)o2)c(=O)n1[C@H](C)c1ccccc1OC` [Example 78, 5-{5-[(1,2-benzoxazol-3-yl)methyl]-1,3,4-oxadiazol-2-yl}-2-butyl-6-hydroxy-3-[(1R)-1-(2-methoxyphenyl)ethyl]-3,4-dihydropyrimidin-4-one] yielded an EC50 of 10 to 100 nM.
For `CCCCc1nc(O)c(-c2nnc(Cc3csc(C)n3)o2)c(=O)n1[C@H](C)c1ccccc1OC` [Example 79, 2-butyl-6-hydroxy-3-[(1R)-1-(2-methoxyphenyl)ethyl]-5-{5-[(2-methyl-1,3-thiazol-4-yl)methyl]-1,3,4-oxadiazol-2-yl}-3,4-dihydropyrimidin-4-one], the EC50 was 0.01 to 10 nM.
For `CCCCc1nc(O)c(-c2nnc(Cc3csc(C)n3)o2)c(=O)n1[C@H](C)C1CC1` [Example 80, 2-butyl-3-[(1R)-1-cyclopropylethyl]-6-hydroxy-5-{5-[(2-methyl-1,3-thiazol-4-yl)methyl]-1,3,4-oxadiazol-2-yl}-3,4-dihydropyrimidin-4-one], the EC50 was 100 to 300 nM.
`CCCCc1nc(O)c(-c2nnc(Cc3ccc(Cl)cc3)o2)c(=O)n1[C@H](C)c1ccccc1OC` [Example 81, 2-butyl-5-{5-[(4-chlorophenyl)methyl]-1,3,4-oxadiazol-2-yl}-6-hydroxy-3-[(1R)-1-(2-methoxyphenyl)ethyl]-3,4-dihydropyrimidin-4-one] gave an EC50 of 10 to 100 nM.
Molecule `CCCCc1nc(O)c(-c2nnc(Cc3csc(C)n3)o2)c(=O)n1[C@H](C)c1ccccc1` [Example 82, 2-butyl-6-hydroxy-5-{5-[(2-methyl-1,3-thiazol-4-yl)methyl]-1,3,4-oxadiazol-2-yl}-3-[(1R)-1-phenylethyl]-3,4-dihydropyrimidin-4-one] has an EC50 of 10 to 100 nM.
`CCCCc1nc(O)c(-c2nnc(Cc3ccc(Cl)cc3)o2)c(=O)n1[C@H](C)c1ccccc1` [Example 83, 2-butyl-5-{5-[(4-chlorophenyl)methyl]-1,3,4-oxadiazol-2-yl}-6-hydroxy-3-[(1R)-1-phenylethyl]-3,4-dihydropyrimidin-4-one] showed an EC50 of 10 to 100 nM.
Work on `CCCCc1nc(O)c(-c2nnc(Cc3ccc(Cl)cc3)o2)c(=O)n1[C@@H](CC)c1ccccc1` [Example 84, 2-butyl-5-{5-[(4-chlorophenyl)methyl]-1,3,4-oxadiazol-2-yl}-6-hydroxy-3-[(1S)-1-phenylpropyl]-3,4-dihydropyrimidin-4-one] yielded an EC50 of 10 to 100 nM.
In the case of `CCCCc1nc(O)c(-c2nnc(Cc3csc(C)n3)o2)c(=O)n1[C@@H](CC)c1ccccc1` [Example 85, 2-butyl-6-hydroxy-5-{5-[(2-methyl-1,3-thiazol-4-yl)methyl]-1,3,4-oxadiazol-2-yl}-3-[(1S)-1-phenylpropyl]-3,4-dihydropyrimidin-4-one], the EC50 is reported as 0.01 to 10 nM.
`CCCCc1nc(O)c(-c2nnc(Cc3noc4ccccc34)o2)c(=O)n1[C@H](C)c1ccccc1` [Example 86, 5-{5-[(1,2-benzoxazol-3-yl)methyl]-1,3,4-oxadiazol-2-yl}-2-butyl-6-hydroxy-3-[(1R)-1-phenylethyl]-3,4-dihydropyrimidin-4-one] was tested, and the EC50 was 0.01 to 10 nM.
Molecule `CCCCc1nc(O)c(-c2nnc(Cc3noc4ccccc34)o2)c(=O)n1[C@H](CC)c1ccccc1` [Example 87, 5-{5-[(1,2-benzoxazol-3-yl)methyl]-1,3,4-oxadiazol-2-yl}-2-butyl-6-hydroxy-3-[(1R)-1-phenylpropyl]-3,4-dihydropyrimidin-4-one] has an EC50 of 0.01 to 10 nM.
With `CCCCc1nc(O)c(-c2nnc(Cc3csc(C)n3)o2)c(=O)n1[C@H](CC)c1ccccc1` [Example 88] the EC50 was 0.01 to 10 nM.
With `CCCCc1nc(O)c(-c2nnc(Cc3ccc(Cl)cc3)o2)c(=O)n1[C@H](CC)c1ccccc1` [Example 89, 2-butyl-5-{5-[(4-chlorophenyl)methyl]-1,3,4-oxadiazol-2-yl}-6-hydroxy-3-[(1R)-1-phenylpropyl]-3,4-dihydropyrimidin-4-one] the EC50 was 10 to 100 nM.
`CCCCc1nc(O)c(-c2nnc(Cc3noc4ccccc34)o2)c(=O)n1[C@H](COC)c1ccccc1` [Example 90, 5-{5-[(1,2-benzoxazol-3-yl)methyl]-1,3,4-oxadiazol-2-yl}-2-butyl-6-hydroxy-3-[(1S)-2-methoxy-1-phenylethyl]-3,4-dihydropyrimidin-4-one] was tested, and the EC50 was 100 to 300 nM.
